Test results from US9028860B2, “Partially microcellular, selectively hydrophilic composite construct for ocular drug delivery” (Poly-Med, Inc., priority 2010, dated 2015).

Test: Drug delivery profile: diffusion of loaded drug from foam-film composite to wetted receptor foam piece, HPLC
Assay type: physicochemical
Conditions: 1x1 cm composite loaded with 100 μL of 261.5 mg/mL solution; on wetted 2x2 cm foam piece; 10 minutes, 37° C.
Protocol: • A foam-film composite made using the process outlined in example 3 was used to evaluate the drug delivery profile of said composite after drug loading. This was done by loading a dry 1×1 cm piece of the composite foam-film with 100 μL of our 261.5 mg/mL solution of dexamethasone disodium phosphate in nanopure water. This piece was then placed on top of a wetted 2×2 cm piece without the flexible film. These two pieces were left in contact for a period of 10 minutes at 37° C. After […] the pieces were separated and the receptor (bottom) piece was placed into a vial. At this point 5 mL of water was added to the vial and the piece was shaken in this new volume of water for 10 minutes. The aqueous layer was then filtered through a 0.45 μm filter and run on a reverse phase HPLC. Using a C18 column and a 12 minute gradient method of water and acetonitrile, it was determined that about 12 mg or about 45% of the loaded DSP diffused to the receptor (bottom) piece.

In the case of `C[C@@H]1C[C@H]2[C@@H]3CCC4=CC(=O)C=C[C@]4(C)[C@@]3(F)[C@@H](O)C[C@]2(C)[C@@]1(O)C(=O)COP(=O)([O-])[O-].[Na+].[Na+]` [DSP, dexamethasone disodium phosphate], the “amount of DSP diffused to the receptor (bottom) piece” value is reported as “about 12 mg” and the “percent of the loaded DSP diffused to the receptor (bottom) piece” value is reported as “about 45%”.
